Records with an inconclusive call do not appear.

As usually defined, the IC50 is the concentration that inhibits the measured activity by half.

This assay has as its target Virion infectivity factor (Human immunodeficiency virus type 1 group M subtype B (isolate BH10)) + Virion infectivity factor (Human immunodeficiency virus type 1 group M subtype B (isolate BRU/LAI)) + Virion infectivity factor (Human immunodeficiency virus type 1 group M subtype B (isolate PCV12)) + Virion infectivity factor (Human immunodeficiency virus type 1 group M subtype B (isolate HXB2)) + DNA dC->dU-editing enzyme APOBEC-3G (Homo sapiens) (UniProt P69720+P69721+P69722+P69723+Q9HC16). In words: inhibitors of Vif binding to APOBEC3G peptide, primary screen, biochemical, TR-FRET, GST-Vif 1-94, biotin-A3G peptide, dose response retest (AID 1117319).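 Note: Vif residues 1-94 fused to GST binding biotinylated APOBEC3G peptide 110-148.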 On the technique in general: TR-FRET usually uses a lanthanide donor and a delayed reading to cut background.
As to `c1coc(-c2nc(-c3ccco3)c(-c3ccco3)nc2-c2ccco2)c1`, the IC50 is 0.35 µM.
The result for `Cc1c(N=C2C=C(Br)C(=O)C(Br)=C2)c(=O)n(-c2ccccc2)n1C` reads 14.1 µM; that for `S=c1nc(-c2ccc(Br)cc2)oc2c1CCCC2`, 61.7 µM.
With `C=CCSc1nnc(NC(=O)CSc2nnc(C)s2)s1`, the half-maximal inhibitory concentration (IC50) was 90.6 µM.
Consider `CC1=CN2C(=N)/C(=C/c3ccc([N+](=O)[O-])o3)C(=O)N=C2S1`, for which the IC50 was 2.91 µM.
Regarding `COc1ccc(NC(=S)NCCc2ccccc2OC)c(OC)c1`, the IC50 is 7.02 µM.
As for `CCN(CC)c1ccc(/C=N/n2c(C)cc(C)cc2=O)cc1`, the figure is 1.65 µM; as for `O=C(Cc1cccs1)N/N=C/C=C/c1ccco1`, 3.68 µM; as for `CN(C)c1nc(N)nc(CSc2nc3c(c(=O)n(C)c(=O)n3C)n2Cc2ccccc2F)n1`, 60.9 µM.
The result for `Cc1ccc(Nc2cnn(C34CC5CC(CC(CC(=O)O)(C5)C3)C4)c(=O)c2Cl)cc1C` reads 96.6 µM.
As for `CCCOc1ccc(Cc2nn3c(=O)/c(=C/c4ccco4)sc3nc2=O)cc1`, the figure is 1.5 µM.
Turning to `CCC1C/C(=C/c2ccco2)C(=O)/C(=C/c2ccco2)C1` (centres undefined), the IC50 is 2.59 µM.
As for `[O-][n+]1onc2c1CCc1c-2nc(-c2ccccc2)n1OCc1ccccc1`, the figure is 76.9 µM; as for `CCN(CC)c1ccc(NC2=C(Cl)C(=O)c3ccccc3C2=O)cc1`, 3.81 µM.
As for `CCc1ccc(S(=O)(=O)/N=C2\C=CC(=O)c3ccccc32)cc1`, the IC50 was 8.1 µM.
On to `COc1ccc2cc(C3C(C#N)=C(N)OC(C)=C3C(C)=O)c(Cl)nc2c1` (centres undefined), for which the IC50 is 19.4 µM.
The result for `O=C(/C=C/c1cccs1)Nc1ccc(Br)cn1` reads 10.2 µM.
`O=[N+]([O-])c1cc(-c2ccc(/C=N/c3nc4ccccn4c3-c3ccco3)o2)ccc1Cl`: the half-inhibitory concentration (IC50) was 10 µM.
As to `CCOc1ccc(-c2nnn(CC(=O)c3ccc4c(c3)OCCO4)n2)cc1OCC`, the IC50 is 29.1 µM.
As for `CN(Cc1cnc2nc(N)nc(N)c2n1)c1ccc(C(=O)NC(CCC(=O)O)C(=O)O)cc1` (centres undefined), the figure is 49.2 µM.
As for `Cc1cc(C)c(S(=O)(=O)N2CCCCC2)c(C)c1N(C)S(=O)(=O)c1ccc(Cl)cc1`, the figure is 13.2 µM; as for `CCc1cc(=O)n2[nH]c(C)c(-c3ccccc3OC)c2n1`, 4.38 µM.
The result for `COC(=O)c1ccc(CC(=O)c2c(C)cc(O)cc2O)o1` reads 2.33 µM; that for `CCc1noc(N)c1C(=O)Nc1ccc(F)c(Cl)c1`, 74.6 µM.
As for `COc1ccccc1NCCC(=O)OCC(=O)NCc1ccco1`, the IC50 is 13.9 µM.
As for `COc1ccc(S(=O)(=O)Nc2cc(SCC(=O)O)c(O)c3ccccc23)cc1`, the figure is 22.1 µM; as for `CC1C/C(=C/c2ccco2)C(=O)/C(=C/c2ccco2)C1` (centres undefined), 1.89 µM; as for `O=C(CCCCCN1C(=O)CCC1=O)Nc1ccc(Cl)c(C(F)(F)F)c1`, 3.93 µM.
As to `CCCCn1c(O)c(C(CC)=NCCN2CCCCC2)c(=O)[nH]c1=O`, the IC50 was 4.09 µM.
Take `CCn1c2ccccc2c2cc(NC(=O)c3ccccc3[N+](=O)[O-])ccc21`: the IC50 is 14.7 µM.
As for `CCCCNC(=O)c1ccc2nc(-c3ccco3)c(-c3ccco3)nc2c1`, the figure is 1.19 µM; as for `CN(C)c1ccc(NC(=O)CSc2nc3ccccc3c(=O)n2C2CCCCC2)cc1`, 21.7 µM.
As to `CN(C(=S)Nc1cccnc1)c1ccc(O)cc1`, the IC50 was 1.85 µM.
`O=C1/C(=C\c2ccco2)SC(=S)N1c1ccccc1`: the IC50 is 2.58 µM.
As for `O=C(Nc1cc(Cl)ccn1)C1CCN(S(=O)(=O)c2cccs2)CC1`, the figure is 56.8 µM; as for `COc1ccccc1-n1cnc2cc(NCc3cccs3)ccc21`, 82.7 µM.
As for `Cc1ccccc1NC(=O)CSc1nnc(-c2ccco2)c(-c2ccco2)n1`, the figure is 1.17 µM; as for `CCOc1ccccc1NC(=O)CCS(=O)(=O)c1ccc(Br)cc1`, 7.52 µM; as for `O=c1cc2c(=O)oc3cc(O)c(O)oc3c2c(O)c1O`, 1.68 µM.
As for `Cc1ccc(N(CN2C(=O)C3CC=CCC3C2=O)C(=O)c2ccco2)cc1Cl` (centres undefined), the figure is 53.4 µM; as for `CCN(CC)c1ccc(NC2CC(=O)N(CCc3ccc(OC)cc3)C2=O)cc1` (centres undefined), 6.97 µM; as for `CCCSC1=N/C(=C\c2ccc([N+](=O)[O-])o2)C(=O)S1`, 12.9 µM.
Consider `CC(C)NC(=O)c1cc(-c2ccco2)nn1-c1ccc(Cl)cc1`, for which the IC50 was 13.5 µM.
Take `O=C(O)c1ccc(-n2cccc2/C=N\NC(=O)c2cc3cc(Br)ccc3o2)cc1`: the IC50 is 6.47 µM.
The result for `CC(=O)Nc1ccc(S(=O)(=O)Nc2nc3ccccc3nc2Nc2ccc(C(=O)O)c(O)c2)cc1` reads 17.4 µM; that for `CN1CCN(C2=C(Cl)C(=O)C(c3cnc(N4CCCCC4)s3)=C(Cl)C2=O)CC1`, 2.5 µM.
The result for `COCCNC(=O)COC(=O)c1[nH]c(C)c(C(C)=O)c1C` reads 9.88 µM; that for `CCNc1ccc(Br)cc(C(=O)/C=C/c2ccc(Cl)cc2)c1=O`, 7.05 µM.
The result for `CC(/C=C1\SC(=S)N(CCCC(=O)Nc2ccc(C(=O)O)c(O)c2)C1=O)=C\c1ccccc1` reads 5.1 µM.
`Cc1ccc(C)c(/C(O)=C2/C(=O)C(=O)N(CCN3CCOCC3)C2c2ccco2)c1` (centres undefined): the IC50 is 18.1 µM.
As for `CCc1ccc(N2C(=O)NC(=O)/C(=C\C=C\c3ccco3)C2=O)cc1`, the IC50 was 7.09 µM.
As for `COC(=O)CCC(=O)OC1(C)C(=O)C2=COC(c3ccc(OC)cc3)=CC2=C(Br)C1=O` (centres undefined), the figure is 13.7 µM; as for `COC(=O)c1ccccc1NC(=O)CCS(=O)(=O)c1ccc(Br)cc1`, 1.49 µM; as for `CCOC(=O)C1=C(N)n2c(s/c(=C\c3ccco3)c2=O)=C(C(=O)OC(C)C)C1c1ccco1` (centres undefined), 1.23 µM.
The result for `Oc1ccc2c(c1)C1CCCC1(N1CCOCC1)O2` (centres undefined) reads 4.31 µM; that for `COC1=C(N)C(=O)c2nc(-c3nc(C(=O)O)c(C)c(-c4ccc(OC)c(OC)c4O)c3N)ccc2C1=O`, 10.8 µM; that for `Cc1cccc(C)c1NS(=O)(=O)c1c(C)[nH]c(=O)[nH]c1=O`, 85.4 µM.
As for `COc1cc(CC(=O)OCC(=O)Nc2cccc([N+](=O)[O-])c2)cc(OC)c1OC`, the figure is 11.8 µM.
As for `Cc1noc(C)c1COc1ccc(C(=O)OCC(=O)N2c3ccccc3NC(=O)C2(C)C)cc1`, the IC50 is 14.9 µM.
The result for `Cc1cc(-c2csc(NC(=O)c3cc4ccccc4o3)n2)c(C)n1C` reads 48.7 µM.
As for `CCCC(=O)NC1=C(Cl)C(=O)c2ccccc2C1=O`, the figure is 13.1 µM.
For the compound `Cc1n[nH]c(=S)n(NC(=O)/C=C/C(=O)Nn2c(=S)[nH]nc(C)c2=O)c1=O`, the IC50 was 2.38 µM.
As to `O=C1/C(=C\c2ccco2)SC(=S)N1Cc1ccccc1`, the IC50 is 3.56 µM.
The result for `COc1nc(N(c2ccccc2)c2ccccc2)nc(-n2ccnc2)n1` reads 26.3 µM.
As for `Oc1ccc(NCc2cccc(OCc3ccccc3)c2)cc1`, the figure is 2.14 µM; as for `COc1ccc(OC)c(NC(=O)NCc2ccc(F)cc2)c1`, 58.5 µM; as for `O=C(O)C1=NN(c2cc(Cl)c(S(=O)(=O)O)cc2Cl)C(=O)C1`, 85.7 µM.
The result for `CC1C=CC=CC=CC=CC=CC=CC=CC(OC2OC(C)C(O)C(N)C2O)CC2OC(O)(CC(O)CC(O)C(O)CCC(O)CC(O)CC(=O)OC(C)C(C)C1O)CC(O)C2C(=O)O` (centres undefined) reads 0.87 µM; that for `CC(C)(C)c1ccc(-c2nnc(SCCC#N)n2C2CCCC2)cc1`, 86.7 µM.

These data come from PubChem BioAssay AID1117319 (Southern Research Institute, 2015).
